From patent US12643895B2, “Heteroaryl-substituted pyrazolo-pyridine protein kinase inhibitors for promoting liver regeneration or reducing or preventing hepatocyte death” (HepaRegeniX GmbH, priority 2019, dated 2026) come the findings set out here.

What all share (assay type): biochemical
For one test, the target named is T1, MKK7 (Homo sapiens, UniProt O14733).
T1 construct: purchased ProQinase GmbH, Freiburg, Germany (assay service)
T1 sequence (O14733 1-419): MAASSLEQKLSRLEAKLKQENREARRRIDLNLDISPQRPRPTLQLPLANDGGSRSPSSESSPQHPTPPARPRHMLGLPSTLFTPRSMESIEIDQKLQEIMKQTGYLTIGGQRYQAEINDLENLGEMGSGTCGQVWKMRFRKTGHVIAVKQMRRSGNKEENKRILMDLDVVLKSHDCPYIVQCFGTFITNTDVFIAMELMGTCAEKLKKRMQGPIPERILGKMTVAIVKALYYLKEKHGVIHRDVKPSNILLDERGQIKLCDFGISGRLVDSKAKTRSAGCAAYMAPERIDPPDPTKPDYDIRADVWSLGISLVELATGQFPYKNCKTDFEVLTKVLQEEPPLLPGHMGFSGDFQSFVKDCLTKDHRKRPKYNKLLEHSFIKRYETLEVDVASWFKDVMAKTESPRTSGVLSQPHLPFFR
In words: 33PanQinase radiometric kinase assay, MKK7 (off-target). The following applies: ratio IC50(off-target)/IC50(MKK4). The procedure:
(§1) The kinase activities of the compounds of the invention were measured using the 33PanQinase® Assay Service provided by ProQinase GmbH, Freiburg, Germany. Details of the assay conditions are disclosed on the website of ProQinase (https://www.proqinase.com/products-services-biochemical-assay-services/kinase-assays). In brief, all kinase assays were performed in 96-well FlashPlates™ from PerkinElmer (Boston, MA, USA) in a 50 μl reaction volume. The reaction cocktail was pipetted in four steps in the following order: • 20 μl of assay buffer (standard buffer) • 5 μl of ATP solution (in H2O) • 5 μl of test compound (in 10% DMSO) • 20 μl enzyme/substrate mix
(§2) The reaction cocktails were incubated at 30° C. for 60 minutes. The reaction is stopped with 50 μl of 2% (v/v) H3PO4, plates were aspirated and washed two times with 200 μl 0.9% (w/v) NaCl. Incorporation of ^33Pi was determined with a microplate scintillation counter (Microbeta, Wallac).
(§3) All assays were performed with a BeckmanCoulter/SAGIAN™ Core System.
(§4) In case of single concentration assays, the potency of the test compound is expressed as % residual activity. […] The fitting method used was a least-squares fit.
(§5) Selectivity of test compounds against BRaf, JNK1 and MKK7, altogether denominated as off-targets was calculated by the ratio of IC50 (off-target)/IC50 (MKK4) and categorized as follows: […]

The target in a further test is T2, JNK1 (Homo sapiens, UniProt P45983).
T2 construct: purchased ProQinase GmbH, Freiburg, Germany (assay service)
T2 sequence (P45983 whole entry): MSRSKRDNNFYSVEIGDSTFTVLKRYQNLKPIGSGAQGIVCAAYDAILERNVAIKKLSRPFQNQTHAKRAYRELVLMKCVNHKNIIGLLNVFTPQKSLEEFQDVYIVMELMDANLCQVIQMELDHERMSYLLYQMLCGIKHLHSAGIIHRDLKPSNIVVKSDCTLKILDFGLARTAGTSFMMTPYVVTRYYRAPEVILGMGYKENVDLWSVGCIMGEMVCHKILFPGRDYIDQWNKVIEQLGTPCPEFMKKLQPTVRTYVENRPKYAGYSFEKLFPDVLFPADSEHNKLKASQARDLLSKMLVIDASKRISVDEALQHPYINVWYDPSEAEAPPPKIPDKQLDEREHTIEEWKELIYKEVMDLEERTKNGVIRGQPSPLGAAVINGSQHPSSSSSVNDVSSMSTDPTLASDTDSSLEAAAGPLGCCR
Kind of test: 33PanQinase radiometric kinase assay, JNK1 (off-target). The following applies: ratio IC50(off-target)/IC50(MKK4). The procedure: as §1, §2, §3, §4, §5

The target in the next test is T3, MKK4 (Homo sapiens, UniProt P45985).
T3 construct: purchased ProQinase GmbH, Freiburg, Germany (assay service)
T3 sequence (P45985 1-399): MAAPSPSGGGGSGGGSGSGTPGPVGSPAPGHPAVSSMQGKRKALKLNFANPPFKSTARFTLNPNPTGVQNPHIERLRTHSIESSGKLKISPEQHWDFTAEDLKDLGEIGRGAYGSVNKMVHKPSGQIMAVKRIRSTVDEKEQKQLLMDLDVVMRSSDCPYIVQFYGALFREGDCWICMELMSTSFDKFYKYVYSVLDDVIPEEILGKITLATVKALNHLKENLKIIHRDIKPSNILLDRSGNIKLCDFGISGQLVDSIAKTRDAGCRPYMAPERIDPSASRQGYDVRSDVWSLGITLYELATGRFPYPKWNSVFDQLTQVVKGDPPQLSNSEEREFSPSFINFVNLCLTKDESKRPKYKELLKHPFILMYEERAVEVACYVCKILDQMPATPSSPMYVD
In words: 33PanQinase radiometric kinase assay, MKK4. The following applies: category based on IC50-values; ATP at apparent Km; read-out: Potency MKK4. The procedure: as §1, §2, §3, §4

The target in the next test is T4, BRaf (Homo sapiens, UniProt P15056).
T4 construct: purchased ProQinase GmbH, Freiburg, Germany (assay service)
T4 sequence (P15056 whole entry): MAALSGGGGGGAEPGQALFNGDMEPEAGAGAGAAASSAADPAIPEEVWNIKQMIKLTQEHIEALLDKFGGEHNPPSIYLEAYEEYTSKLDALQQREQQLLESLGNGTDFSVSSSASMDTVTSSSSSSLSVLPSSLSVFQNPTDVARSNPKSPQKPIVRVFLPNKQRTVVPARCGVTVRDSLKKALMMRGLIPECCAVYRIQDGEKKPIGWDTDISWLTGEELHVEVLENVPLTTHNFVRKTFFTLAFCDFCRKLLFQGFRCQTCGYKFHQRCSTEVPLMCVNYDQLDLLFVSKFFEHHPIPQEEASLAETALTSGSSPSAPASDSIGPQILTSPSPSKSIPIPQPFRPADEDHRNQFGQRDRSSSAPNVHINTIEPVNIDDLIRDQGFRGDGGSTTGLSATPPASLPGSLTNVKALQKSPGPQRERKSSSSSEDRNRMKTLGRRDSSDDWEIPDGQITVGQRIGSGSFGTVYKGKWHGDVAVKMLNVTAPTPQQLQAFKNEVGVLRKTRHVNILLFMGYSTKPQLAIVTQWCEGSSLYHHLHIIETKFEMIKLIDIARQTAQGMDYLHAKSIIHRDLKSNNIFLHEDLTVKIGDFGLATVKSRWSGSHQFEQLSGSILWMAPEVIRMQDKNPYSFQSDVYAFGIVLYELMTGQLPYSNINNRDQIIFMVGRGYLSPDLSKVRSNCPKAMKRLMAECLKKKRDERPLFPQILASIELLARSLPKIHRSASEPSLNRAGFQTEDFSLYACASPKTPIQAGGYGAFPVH
Kind of test: 33PanQinase radiometric kinase assay, BRaf (off-target). The following applies: ratio IC50(off-target)/IC50(MKK4). The procedure:
as §1, §2, §3, §4, §5

Each structure is given as a SMILES string.

Take `CCCS(=O)(=O)Nc1c(F)ccc(C(=O)c2n[nH]c3ncc(-c4ccncc4C)cc23)c1F` [Example 18, N-(2,6-difluoro-3-(5-(3-methylpyridin-4-yl)-1H-pyrazolo[3,4-b]pyridine-3-carbonyl)phenyl)propane-1-sulfonamide]: the “Selectivity MKK7” value at MKK7 is listed as “+++ (IC50(off-target)/IC50(MKK4) > 100)”. For the same compound, the “Selectivity JNK1” value at JNK1 was “+++ (IC50(off-target)/IC50(MKK4) > 100)”. Besides, at MKK4, the IC50 was less than 100 nM. On BRaf, the “Selectivity Braf” value was “+++ (IC50(off-target)/IC50(MKK4) > 100)”.
For `CCCS(=O)(=O)Nc1c(F)ccc(C(=O)c2n[nH]c3ncc(-c4ccc(C(C)(C)C)cc4)cc23)c1F` [Example 19, N-(3-(5-(4-(tert-butyl)phenyl)-1H-pyrazolo[3,4-b]pyridine-3-carbonyl)-2,6-difluorophenyl)propane-1-sulfonamide], the “Selectivity MKK7” value at MKK7 is given as “+++ (IC50(off-target)/IC50(MKK4) > 100)”. Besides, the “Selectivity JNK1” value on JNK1 is reported as “++ (100 ≥ IC50(off-target)/IC50(MKK4) > 10)”. The IC50 at MKK4 was 100 to 1000 nM. Moreover, the “Selectivity Braf” value on BRaf is on record as “+++ (IC50(off-target)/IC50(MKK4) > 100)”.
Regarding `CCCS(=O)(=O)Nc1c(F)ccc(C(=O)c2n[nH]c3ncc(-c4cnc(C(C)(C)C)nc4)cc23)c1F` [Example 21, N-(3-(5-(2-(tert-butyl)pyrimidin-5-yl)-1H-pyrazolo[3,4-b]pyridine-3-carbonyl)-2,6-difluorophenyl)propane-1-sulfonamide], the “Selectivity MKK7” value on MKK7 was “+++ (IC50(off-target)/IC50(MKK4) > 100)”. Also, at JNK1, the “Selectivity JNK1” value is reported as “+++ (IC50(off-target)/IC50(MKK4) > 100)”. In addition, the IC50 at MKK4 was less than 100 nM. Further, the “Selectivity Braf” value on BRaf is “+++ (IC50(off-target)/IC50(MKK4) > 100)”.
In the case of `CCCS(=O)(=O)Nc1c(F)ccc(C(=O)c2n[nH]c3ncc(-c4cnc(SC)nc4)cc23)c1F` [Example 22, N-(2,6-difluoro-3-(5-(2-(methylthio)pyrimidin-5-yl)-1H-pyrazolo[3,4-b]pyridine-3-carbonyl)phenyl)propane-1-sulfonamide], at MKK7, the “Selectivity MKK7” value is “+++ (IC50(off-target)/IC50(MKK4) > 100)”. The “Selectivity JNK1” value on JNK1 was “+++ (IC50(off-target)/IC50(MKK4) > 100)”. Besides, the IC50 at MKK4 was less than 100 nM. Besides, the “Selectivity Braf” value on BRaf was “+++ (IC50(off-target)/IC50(MKK4) > 100)”.
With `CCCS(=O)(=O)Nc1c(F)ccc(C(=O)c2n[nH]c3ncc(-c4cnc(C(C)C)nc4)cc23)c1F` [Example 23, N-(2,6-difluoro-3-(5-(2-isopropylpyrimidin-5-yl)-1H-pyrazolo[3,4-b]pyridine-3-carbonyl)phenyl)propane-1-sulfonamide], the “Selectivity MKK7” value at MKK7 is reported as “+++ (IC50(off-target)/IC50(MKK4) > 100)”. At JNK1, the “Selectivity JNK1” value is reported as “+++ (IC50(off-target)/IC50(MKK4) > 100)”. Besides, at MKK4, the IC50 was less than 100 nM. Moreover, the “Selectivity Braf” value on BRaf was “+++ (IC50(off-target)/IC50(MKK4) > 100)”.
For the compound `CCCS(=O)(=O)Nc1c(F)ccc(C(=O)c2n[nH]c3ncc(-c4cccnc4)cc23)c1F` [Example 27, N-(2,6-difluoro-3-(5-(pyridin-3-yl)-1H-pyrazolo[3,4-b]pyridine-3-carbonyl)phenyl)propane-1-sulfonamide], the “Selectivity MKK7” value at MKK7 was “+++ (IC50(off-target)/IC50(MKK4) > 100)”. Besides, the “Selectivity JNK1” value at JNK1 is listed as “+++ (IC50(off-target)/IC50(MKK4) > 100)”. Moreover, at MKK4, the IC50 is less than 100 nM. For the same compound, at BRaf, the “Selectivity Braf” value is recorded as “+++ (IC50(off-target)/IC50(MKK4) > 100)”.
Take `CCCS(=O)(=O)Nc1c(F)ccc(C(=O)c2n[nH]c3ncc(-c4ccc(C(=O)O)nc4)cc23)c1F` [Example 28, 5-(3-(2,4-difluoro-3-(propylsulfonamido)benzoyl)-1H-pyrazolo[3,4-b]pyridin-5-yl)picolinic acid]: the “Selectivity MKK7” value at MKK7 was “++ (100 ≥ IC50(off-target)/IC50(MKK4) > 10)”. Besides, the “Selectivity JNK1” value on JNK1 is given as “+++ (IC50(off-target)/IC50(MKK4) > 100)”. The IC50 on MKK4 is less than 100 nM. In addition, at BRaf, the “Selectivity Braf” value was “+++ (IC50(off-target)/IC50(MKK4) > 100)”.
For the compound `CCCS(=O)(=O)Nc1c(F)ccc(C(=O)c2n[nH]c3ncc(-c4cncnc4C)cc23)c1F` [Example 29, N-[2,6-difluoro-3-[5-(4-methylpyrimidin-5-yl)-1H-pyrazolo[3,4-b]pyridine-3-carbonyl]phenyl]propane-1-sulfonamide], at MKK7, the “Selectivity MKK7” value is recorded as “+++ (IC50(off-target)/IC50(MKK4) > 100)”. Also, the “Selectivity JNK1” value on JNK1 was “+++ (IC50(off-target)/IC50(MKK4) > 100)”. Moreover, the IC50 on MKK4 is 100 to 1000 nM. On BRaf, the “Selectivity Braf” value was “+++ (IC50(off-target)/IC50(MKK4) > 100)”.
Take `CCCS(=O)(=O)Nc1c(F)ccc(C(=O)c2n[nH]c3ncc(-c4cnc(C)nc4C)cc23)c1F` [Example 30, N-[3-[5-(2,4-dimethylpyrimidin-5-yl)-1H-pyrazolo[3,4-b]pyridine-3-carbonyl]-2,6-difluoro-phenyl]propane-1-sulfonamide]: at MKK7, the “Selectivity MKK7” value is given as “+++ (IC50(off-target)/IC50(MKK4) > 100)”. Besides, at JNK1, the “Selectivity JNK1” value is “+++ (IC50(off-target)/IC50(MKK4) > 100)”. The IC50 at MKK4 fell in the range of 100 to 1000 nM. The “Selectivity Braf” value on BRaf is recorded as “+++ (IC50(off-target)/IC50(MKK4) > 100)”.
Turning to `CCCS(=O)(=O)Nc1c(F)ccc(C(=O)c2n[nH]c3ncc(-c4cnc(C5CC5)nc4C)cc23)c1F` [Example 31, N-(3-(5-(2-cyclopropyl-4-methylpyrimidin-5-yl)-1H-pyrazolo[3,4-b]pyridine-3 carbonyl)-2,6-difluorophenyl)propane-1-sulfonamide], the “Selectivity MKK7” value at MKK7 is on record as “+++ (IC50(off-target)/IC50(MKK4) > 100)”. For the same compound, the “Selectivity JNK1” value on JNK1 is listed as “+++ (IC50(off-target)/IC50(MKK4) > 100)”. For the same compound, the IC50 on MKK4 was in the range of 100 to 1000 nM. In addition, at BRaf, the “Selectivity Braf” value is given as “+++ (IC50(off-target)/IC50(MKK4) > 100)”.
Take `CCCS(=O)(=O)Nc1c(F)ccc(C(=O)c2n[nH]c3ncc(-c4cnc(C5CC5)nc4SC)cc23)c1F` [Example 32, N-(3-(5-(2-cyclopropyl-4-(methylthio)pyrimidin-5-yl)-1H-pyrazolo[3,4-b]pyridine-3 carbonyl)-2,6-difluorophenyl)propane-1-sulfonamide]: on MKK7, the “Selectivity MKK7” value was “+++ (IC50(off-target)/IC50(MKK4) > 100)”. For the same compound, the “Selectivity JNK1” value on JNK1 is “+++ (IC50(off-target)/IC50(MKK4) > 100)”. The IC50 on MKK4 was in the range of 100 to 1000 nM. Also, on BRaf, the “Selectivity Braf” value was “+++ (IC50(off-target)/IC50(MKK4) > 100)”.
Turning to `CCCS(=O)(=O)Nc1c(F)ccc(C(=O)c2n[nH]c3ncc(-c4cnc(SC)nc4C)cc23)c1F` [Example 33, N-[2,6-difluoro-3-[5-(4-methyl-2-methylsulfanyl-pyrimidin-5-yl)-1H-pyrazolo[3,4-b]pyridine-3-carbonyl]phenyl]propane-1-sulfonamide], the “Selectivity MKK7” value on MKK7 was “+++ (IC50(off-target)/IC50(MKK4) > 100)”. On JNK1, the “Selectivity JNK1” value was “+++ (IC50(off-target)/IC50(MKK4) > 100)”. For the same compound, the IC50 at MKK4 is less than 100 nM. For the same compound, the “Selectivity Braf” value on BRaf is given as “+++ (IC50(off-target)/IC50(MKK4) > 100)”.
For `CCCS(=O)(=O)Nc1c(F)ccc(C(=O)c2n[nH]c3ncc(-c4cnc(OC)nc4OC)cc23)c1F` [Example 34, N-[3-[5-(2,4-dimethoxypyrimidin-5-yl)-1H-pyrazolo[3,4-b]pyridine-3-carbonyl]-2,6-difluoro-phenyl]propane-1-sulfonamide], the “Selectivity MKK7” value on MKK7 is on record as “+++ (IC50(off-target)/IC50(MKK4) > 100)”. Further, on JNK1, the “Selectivity JNK1” value was “+++ (IC50(off-target)/IC50(MKK4) > 100)”. Besides, the IC50 at MKK4 is less than 100 nM. At BRaf, the “Selectivity Braf” value is listed as “+++ (IC50(off-target)/IC50(MKK4) > 100)”.
